Measurements taken from US9932350B2, “Inhibitors of IRAK4 activity” (MERCK SHARP & DOHME CORP., priority 2014, dated 2018).

These molecules were tested against GST tagged IRAK4 (Homo sapiens (Human), UniProt Q9NWZ3) (assay: IRAK4 Kinase Assay (IMAP fluorescence polarization)). Conditions: 0.5 nM GST tagged IRAK4, 100 μM ATP, 30 minutes at 25° C.
GST tagged IRAK4, sequence (Q9NWZ3 whole entry): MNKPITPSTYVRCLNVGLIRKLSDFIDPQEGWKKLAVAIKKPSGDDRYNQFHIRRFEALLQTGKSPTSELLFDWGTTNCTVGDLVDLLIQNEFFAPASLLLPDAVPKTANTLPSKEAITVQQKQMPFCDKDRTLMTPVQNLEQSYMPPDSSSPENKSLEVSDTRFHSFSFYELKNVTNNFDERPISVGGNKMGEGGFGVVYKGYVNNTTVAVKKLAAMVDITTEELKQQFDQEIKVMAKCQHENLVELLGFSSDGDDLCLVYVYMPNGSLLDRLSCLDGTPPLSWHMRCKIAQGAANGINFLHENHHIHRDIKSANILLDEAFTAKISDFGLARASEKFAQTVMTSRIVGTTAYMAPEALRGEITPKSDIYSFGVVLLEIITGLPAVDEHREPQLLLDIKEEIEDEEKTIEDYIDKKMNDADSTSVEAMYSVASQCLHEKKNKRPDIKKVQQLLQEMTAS
Type: biochemical
Procedure, shortened: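 GST-tagged IRAK4 (0.5 nM) phosphorylates 100 nM fluorescent peptide with 100 μM ATP in 10 mM Tris pH 7.2, 1 mM MgCl2, 1 mM DTT, 0.01% Tween 20 for 30 min at 25 °C. Phosphorylation read as IMAP nanoparticle-binding fluorescence polarization after stop reagent.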
Work on `N#Cc1ccc2ncnc(N[C@H]3CC[C@H](N4CCN(C(=O)C(O)C5CC5)CC4)CC3)c2c1` (stereo partly drawn) [Example 6-20, 4-[(trans-4-{4-[cyclopropyl(hydroxy)acetyl]piperazin-1-yl}cyclohexyl)amino] quinazoline-6-carbonitrile] yielded an IC50 of 8 nM.
In the case of `N#Cc1ccc2ncnc(N[C@H]3CC[C@H](N4CCN(C(=O)C5CC(O)C5)CC4)CC3)c2c1` (stereo partly drawn) [Example 6-21, 4-[(trans-4-{4-[(3-hydroxycyclobutyl)carbonyl]piperazin-1-yl}cyclohexyl)amino] quinazoline-6-carbonitrile], the IC50 is reported as 10 nM.
`N#Cc1ccc2ncnc(N[C@H]3CC[C@H](N4CCN(C(=O)CCO)CC4)CC3)c2c1` [Example 6-22, 4-({trans-4-[4-(3-hydroxypropanoyl)piperazin-1-yl]cyclohexyl}amino) quinazoline-6-carbonitrile] was tested, and the IC50 was 9 nM.
Molecule `N#Cc1ccc2ncnc(N[C@H]3CC[C@H](N4CCN(C(=O)[C@H]5CCCO5)CC4)CC3)c2c1` [Example 6-23, 4-[(trans-4-{4-[(2R)-tetrahydrofuran-2-ylcarbonyl]piperazin-1-yl}cyclohexyl)amino] quinazoline-6-carbonitrile] has an IC50 of 17 nM.
Molecule `C[C@]1(Nc2ncnc3ccc(C#N)cc23)CC[C@H](N2CCOCC2)CC1` [Example 7-1, 4-{[Trans-1-methyl-4-(morpholin-4-yl)cyclohexyl]amino}quinazoline-6-carbonitrile] has an IC50 of 98 nM.
`C[C@]1(Nc2ncnc3ccc(C#N)cc23)CC[C@H](N2CCC(F)CC2)CC1` [Example 7-2, 4-{[trans-4-(4-fluoropiperidin-1-yl)-1-methylcyclohexyl]amino} quinazoline-6-carbonitrile] was tested, and the IC50 was 74 nM.
`C[C@]1(Nc2ncnc3ccc(C#N)cc23)CC[C@H](N2CCC(O)C2)CC1` (stereo partly drawn) [Example 7-3, 4-{[trans-4-(3-hydroxypyrrolidin-1-yl)-1-methylcyclohexyl]amino} quinazoline-6-carbonitrile] gave an IC50 of 43 nM.
Molecule `N#Cc1ccc2ncnc(N[C@H]3CC[C@H](N4CCC(F)CC4)[C@@H]4C[C@@H]43)c2c1` [Example 7-4, 4-{[(1S,2S,5S,6R)-5-(4-fluoropiperidin-1-yl)bicyclo[4.1.0]hept-2-yl]amino}quinazoline-6-carbonitrile] has an IC50 of 7 nM.
